Values quoted from earlier work in article PMC10769797 (The Oncologist, 2023).

Legend:
[1] = tested on: POLR2A expression; details: cited from earlier work
[2] = tested on: patients with advanced solid tumors; details: phase I study; cited from earlier work

SMILES: CC1(C)CC[C@H](Nc2ncc(C(F)(F)F)c(-c3c[nH]c4c(P(C)(C)=O)c(C#N)ccc34)n2)CN1 [SY-5609]
- POLR2A expression change compared with baseline ([1]; CDK7-target occupancy up to 100%): 4-5 fold
- POLR2A expression change in PBMCs ([1]; at 75% CDK7-target occupancy): approximately 2.5 fold
- DLTs [2]: cytopenia, gastrointestinal toxicity, and hypotension
- Most frequent TEAEs [2]: gastrointestinal toxicity, fatigue, thrombocytopenia, and anemia
